From ChEMBL document CHEMBL3885881, “DrugMatrix”

Species on record: Rattus norvegicus
Type: toxicity, organism-based, Sprague-Dawley
Settings: in vivo, po, route oral GAVAGE, vehicle 100 % SALINE; for ABSOLUTE EOSINOPHIL / ABSOLUTE LYMPHOCYTE / ABSOLUTE MONOCYTE / ABSOLUTE SEGMENTED NEUTROPHIL / BASOPHIL / EOSINOPHIL / ERYTHROCYTE COUNT / HEMATOCRIT / HEMOGLOBIN / LEUKOCYTE COUNT / LYMPHOCYTE / MEAN CORPUSCULAR HEMOGLOBIN / MEAN CORPUSCULAR HEMOGLOBIN CONCENTRATION / MEAN CORPUSCULAR VOLUME / MONOCYTE / NEUTROPHIL / NUCLEATED RED BLOOD CELLS / PLATELET COUNT: tissue Blood; for ALANINE AMINOTRANSFERASE / ALBUMIN / ALKALINE PHOSPHATASE / ASPARTATE AMINOTRANSFERASE / BLOOD UREA NITROGEN / CARBON DIOXIDE / CHLORIDE / CHOLESTEROL / CREATINE PHOSPHOKINASE / CREATININE / GLUCOSE / LACTATE DEHYDROGENASE / LIPASE / PHOSPHORUS / POTASSIUM / SODIUM / TOTAL BILIRUBIN / TOTAL PROTEIN / URIC ACID: tissue Plasma
[1] = 0 mg/kg, 6 h, dose level Control, time 0.25 day
[2] = 0 mg/kg, 24 h, dose level Control, time 1 day
[3] = 3000 mg/kg, 6 h, dose level Low, time 0.25 day

Description: DrugMatrix - Regimen: Single

CCO [ALCOHOL]
ABSOLUTE EOSINOPHIL [1]: 24 CELLS/uL
ABSOLUTE LYMPHOCYTE [1]: 11958.17 CELLS/uL
ABSOLUTE MONOCYTE [1]: 398.83 CELLS/uL
ABSOLUTE SEGMENTED NEUTROPHIL [1]: 1252.33 CELLS/uL
BASOPHIL [1]: 0%
EOSINOPHIL [1]: 0.17%
ERYTHROCYTE COUNT [1]: 5.37 x10E6/uL
HEMATOCRIT [1]: 35.6%
HEMOGLOBIN [1]: 13.05 G/DL
LEUKOCYTE COUNT [1]: 13.63 x10E3/uL
LYMPHOCYTE [1]: 87.67%
MEAN CORPUSCULAR HEMOGLOBIN [1]: 24.28 pg
MEAN CORPUSCULAR HEMOGLOBIN CONCENTRATION [1]: 36.67 G/DL
MEAN CORPUSCULAR VOLUME [1]: 66.28 fL
MONOCYTE [1]: 2.83%
NEUTROPHIL [1]: 9.33%
NUCLEATED RED BLOOD CELLS [1]: 0 /100WBC
PLATELET COUNT [1]: 947.83 x10E3/uL
ALANINE AMINOTRANSFERASE [1]: 51 u/L
ALBUMIN [1]: 4.02 G/DL
ALKALINE PHOSPHATASE [1]: 312.33 u/L
ASPARTATE AMINOTRANSFERASE [1]: 98.17 u/L
BLOOD UREA NITROGEN [1]: 9.5 mg/dL
CARBON DIOXIDE [1]: 18.83 mmol/L
CHLORIDE [1]: 103.5 MEQ/L
CHOLESTEROL [1]: 69.5 mg/dL
CREATINE PHOSPHOKINASE [1]: 580.17 u/L
CREATININE [1]: 0.53 mg/dL
GLUCOSE [1]: 175.67 mg/dL
LACTATE DEHYDROGENASE [1]: 295.5 u/L
LIPASE [1]: 8.17 u/L
PHOSPHORUS [1]: 14.12 mg/dL
POTASSIUM [1]: 5.77 MEQ/L
SODIUM [1]: 144.13 MEQ/L
TOTAL BILIRUBIN [1]: 0.12 mg/dL
TOTAL PROTEIN [1]: 4.87 G/DL
URIC ACID [1]: 2.25 mg/dL
ABSOLUTE EOSINOPHIL [2]: 0 CELLS/uL
ABSOLUTE LYMPHOCYTE [2]: 12232.83 CELLS/uL
ABSOLUTE MONOCYTE [2]: 20.33 CELLS/uL
ABSOLUTE SEGMENTED NEUTROPHIL [2]: 780.17 CELLS/uL
BASOPHIL [2]: 0%
EOSINOPHIL [2]: 0%
ERYTHROCYTE COUNT [2]: 5.18 x10E6/uL
HEMATOCRIT [2]: 33.48%
HEMOGLOBIN [2]: 13.22 G/DL
LEUKOCYTE COUNT [2]: 13.03 x10E3/uL
LYMPHOCYTE [2]: 93.33%
MEAN CORPUSCULAR HEMOGLOBIN [2]: 25.57 pg
MEAN CORPUSCULAR HEMOGLOBIN CONCENTRATION [2]: 39.52 G/DL
MEAN CORPUSCULAR VOLUME [2]: 64.65 fL
MONOCYTE [2]: 0.17%
NEUTROPHIL [2]: 6.5%
NUCLEATED RED BLOOD CELLS [2]: 0 /100WBC
PLATELET COUNT [2]: 931.5 x10E3/uL
ALANINE AMINOTRANSFERASE [2]: 60.83 u/L
ALBUMIN [2]: 4.18 G/DL
ALKALINE PHOSPHATASE [2]: 283.33 u/L
ASPARTATE AMINOTRANSFERASE [2]: 80.5 u/L
BLOOD UREA NITROGEN [2]: 11.83 mg/dL
CARBON DIOXIDE [2]: 35.33 mmol/L
CHLORIDE [2]: 98.5 MEQ/L
CHOLESTEROL [2]: 80 mg/dL
CREATINE PHOSPHOKINASE [2]: 181.83 u/L
CREATININE [2]: 0.2 mg/dL
GLUCOSE [2]: 142.67 mg/dL
LACTATE DEHYDROGENASE [2]: 65.5 u/L
LIPASE [2]: 9.83 u/L
PHOSPHORUS [2]: 9.82 mg/dL
POTASSIUM [2]: 5.69 MEQ/L
SODIUM [2]: 143.35 MEQ/L
TOTAL BILIRUBIN [2]: 0.15 mg/dL
TOTAL PROTEIN [2]: 6.2 G/DL
URIC ACID [2]: 0.42 mg/dL
ABSOLUTE EOSINOPHIL [3]: 17.33 CELLS/uL
ABSOLUTE LYMPHOCYTE [3]: 12297.17 CELLS/uL
ABSOLUTE MONOCYTE [3]: 395.33 CELLS/uL
ABSOLUTE SEGMENTED NEUTROPHIL [3]: 1356.83 CELLS/uL
BASOPHIL [3]: 0%
EOSINOPHIL [3]: 0.17%
ERYTHROCYTE COUNT [3]: 5.49 x10E6/uL
HEMATOCRIT [3]: 36.33%
HEMOGLOBIN [3]: 13.27 G/DL
LEUKOCYTE COUNT [3]: 14.07 x10E3/uL
LYMPHOCYTE [3]: 87%
MEAN CORPUSCULAR HEMOGLOBIN [3]: 24.23 pg
MEAN CORPUSCULAR HEMOGLOBIN CONCENTRATION [3]: 36.55 G/DL
MEAN CORPUSCULAR VOLUME [3]: 66.38 fL
MONOCYTE [3]: 2.67%
NEUTROPHIL [3]: 10.17%
NUCLEATED RED BLOOD CELLS [3]: 0 /100WBC
PLATELET COUNT [3]: 1109.83 x10E3/uL
ALANINE AMINOTRANSFERASE [3]: 45.5 u/L
ALBUMIN [3]: 4.27 G/DL
ALKALINE PHOSPHATASE [3]: 279.17 u/L
ASPARTATE AMINOTRANSFERASE [3]: 96.17 u/L
BLOOD UREA NITROGEN [3]: 11 mg/dL
CARBON DIOXIDE [3]: 19.5 mmol/L
CHLORIDE [3]: 105.33 MEQ/L
CHOLESTEROL [3]: 63.33 mg/dL
CREATINE PHOSPHOKINASE [3]: 339.67 u/L
CREATININE [3]: 0.17 mg/dL
GLUCOSE [3]: 173 mg/dL
LACTATE DEHYDROGENASE [3]: 354.67 u/L
LIPASE [3]: 10 u/L
PHOSPHORUS [3]: 15.83 mg/dL
POTASSIUM [3]: 6.29 MEQ/L
SODIUM [3]: 146.3 MEQ/L
TOTAL BILIRUBIN [3]: 0.0667 mg/dL
TOTAL PROTEIN [3]: 5.62 G/DL
URIC ACID [3]: 2.12 mg/dL
